# Measurements taken from US9868690B2, “Prodrugs of monomethyl fumarate (MMF)” (RATIOPHARM GMBH, priority 2013, dated 2018).
# Where a name gives a salt, the structure may show the parent alone.
# Assay: Kinetic of MMF-release during incubation in intestinal fluid from the minipig
# Assay type: in vitro ADME, Göttingen SPF minipig
# Conditions: incubation in minipig small intestinal fluid diluted 1/20 v/v with 50 mM KH2PO4, pH 6.8, 37° C., samples 0-120 min (up to 1,320 min); reference DMF
# Method: Investigation and Comparison of the Kinetic of MMF-Release of the Different Compounds of the Present Invention and DMF During Incubation in Intestinal Fluid from the Minipig
# Intestinal fluid samples were prepared at CiToxLAB Scantox A/S. The samples were taken from 1 female Göttingen SPF minipig from CiToxLAB Scantox A/S standard stock, originally obtained from Ellegaard Göttingen Minipigs A/S, DK-4261 Dalmose, Denmark. The minipig was 10 months old and the body weight was 21 kg. The minipig was identified by an individual number tagged to the pinna of one ear (animal number is documented in the raw data).
# The minipig was fasted for approximately 28 hours before sampling of intestinal fluid. On the day of sampling, the minipig was weighed and anaesthetised by an intramuscular injection in the neck or in the left hind leg (about 0.3 ml per kg body weight) of a mixture of Zoletil 50 Vet., Virbac, France (125 mg tiletamine and 125 mg zolazepam), Rompun Vet., Bayer, Germany (20 mg xylazine/ml, 6.5 ml), Ketaminol Vet., Veterinaria AG, Switzerland (100 mg ketamine/ml, 1.5 ml) and Methadon DAK, Nycomed Danmark, Denmark (10 mg methadon/ml, 2.5 ml).
# Intestinal fluid was obtained by flushing one jejunal segment, measuring 30.2 cm, with saline. Intestinal fluid together with saline used for flushing was placed in centrifuge tubes. All samples were frozen at −70° C. and shipped on dry ice to the Sponsor for further use.
# • Instrument: Acquity UPLC system coupled with a TQ detector (triple quadruple mass spectrometer) UPLC Method: • Column: Phenomenex Kinetex C18, 100 A, 2.6 μm (150×4.6 mm) • flow: 0.4 ml/min • split: appr. 100 μl/min to MS • temperature 30° C. • solvent system (isocratic): • Solvent A 25% water with 0.1% acetic acid • Solvent B 75% methanol with 0.1% acetic acid • stoptime: 6 min • autosampler temperature: 8° C. • injection volume: 4 μl • retention time: MMF: 4.3 min • MEF: 4.7 min Mass Spectrometry • software: Masslynx 4.1 • detection mode: electrospray/negative ions (ESP−) • capillary voltage: 2.3 kV • source temperature: 100° C. • desolvation temperature: 450° C. • cone voltage: 18 V • desolvation gas: N2, 650 L/h • cone gas: N2, 20 L/h • collision gas: argon, appr. 3.3*10^−3 mbar • collision energy: 11 eV • MRM [m/z]: 128.94>85.03 Monomethylfumarate dwell:200 msec • 142.99>99.06 Monoethylfumarate (ISTD) dwell:200 msec 2.1.2. Stock and Calibration Solutions
# Calibration solutions were prepared by serial dilution of SSMMF; diluted small intestinal fluid (diluted by 1/20 v/v with 50 mM KH2PO4, pH 6.8; (dil IF) was used as matrix. The dilution scheme is given below:
# 50 μl sample (calibration solution or sample of an incubation experiment with MMF prodrugs) was mixed with 50 μl WSISTD, 20 μl formic acid and 100 μl acetonitrile. This mixture was vortexed for 15 sec and centrifuged (13,000 rpm, 3 min). Thereafter, 4 μl of the supernatant were subjected to LC-MS analysis.
# 2.2. Incubation Experiments with DMF (Reference) and Compounds of the Invention
# Stock solutions were prepared in DMSO or in DMSO with 10% (v/v) with water. Concentrations in stock solutions were 5.00, 2.50 and 1.67 mmol for compounds with one, two and three molar MMF equivalents.
# In a HPLC glass vial, 8 μl of stock solution were mixed with 792 μl dil IF and the mixture was stirred (250 rpm) in a water bath (T=37° C.).
# Immediately after mixing as well as at t=15 min, 30 min, 60 min, 90 min and 120 min, 50 μl were withdrawn and prepared for LC-MS analysis as described in chapter. 2.1.3.
# Incubations were continued and in case the result of analysis of the 120 min indicated the presence of remaining intact MMF-prodrug, additional samples were taken (t=360 or 420 min and at 1,260 or 1,320 min) and analysed.
# The concentration/peak area ratio data pairs were subjected to regression analysis with 1/x weighting and the resulting calibration equation was used to quantify the MMF content in incubation samples.
row,Structure (SMILES),"hydrolysis to MMF (MMF release, LC-MS) compared with DMF"
1,"COC(=O)/C=C/C(=O)OCCN(CCOC(=O)/C=C/C(=O)OC)CCOC(=O)/C=C/C(=O)OC [Example 2, tris-[2-(E)-3-methoxycarbonylacryloyloxy)-ethyl]amine hydrochloride]",significantly slower hydrolysis to MMF than DMF
2,"COC(=O)/C=C/C(=O)OCCN1CCS(=O)(=O)CC1 [Example 1a, (E)-But-2-enedioic acid 2-(1,1-dioxo-1-lambda*6*-thiomorpholin-4-yl)-ethyl ester methyl ester]",significantly slower hydrolysis to MMF than DMF
3,"COC(=O)/C=C/C(=O)OCc1oc(=O)oc1C [Example 6, (E)-but-2-enedioic acid methyl ester5-methyl-2-oxo-[1,3]dioxol-4-yl methyl ester]",significantly slower hydrolysis to MMF than DMF
4,"COC(=O)/C=C/C(=O)OCCN1CCN(C)CC1 [Example 1b, (E)-But-2-enedioic acid methyl ester 2-(4-methyl-piperazin-1-yl) ethyl dihydrochloride]",significantly slower hydrolysis to MMF than DMF
5,"COC(=O)/C=C/C(=O)OCCN1CCN(C(C)C)CC1 [Example 1c, (E)-But-2-enedioic acid methyl ester 2-(4-isopropyl-piperazin-1-yl) ethyl dihydrochloride]",significantly slower hydrolysis to MMF than DMF
6,"COC(=O)/C=C/C(=O)OCOP(=O)(OC(C)(C)C)OC(C)(C)C [Example 4a, (E)-but-2-enedioic acid di-tert-butoxy-phosphoryloxymethyl ester methyl ester]",significantly slower hydrolysis to MMF than DMF
7,"COC(=O)/C=C/C(=O)OCCN1CC[S+]([O-])CC1 [Example 1a′, (E)-But-2-enedioic acid methyl ester 2-(1-oxo-1lambda*4*-thiomorpholin-4-yl)-ethyl ester]",significantly slower hydrolysis to MMF than DMF
8,"COC(=O)/C=C/C(=O)OCC(COC(=O)/C=C/C(=O)OC)OC(=O)/C=C/C(=O)OC [Example 3, (E)-but-2-enedioic acid 2,3-bis-(-3-methoxycarbonyl-acryloyloxy)-propyl ester methyl ester]",significantly slower hydrolysis to MMF than DMF
9,"COC(=O)/C=C/C(=O)OCCOC(=O)[C@@H](N)C(C)C [Example 5a, (E)-but-2-enedioic acid 2-((S)-2-amino-3-methyl-butyrryloxy)-ethyl ester methyl ester hydrochloride]",significantly slower hydrolysis to MMF than DMF
